Reference: US20250066310A1, “MULTI-SUBSTITUTED URACIL DERIVATIVE AND PREPARATION METHOD THEREFOR AND APPLICATION THEREOF” (HANGZHOU ADAMERCK PHARMLABS INC., priority 2021, published 2025)
Marks after values point to notes of the source that are not given here.

Experiments:
[1] = test system: rats with focal permanent cerebral ischemia (MCAO); assay: Focal permanent cerebral ischemic injury (MCAO), administration from 3 h post-ischemia; type: in vivo, SD rats
[2] = test system: ICR mice; assay: Effect on in vivo bleeding time in mice (tail cut)
Experimental: A normal control group (blank), positive control group (clopidogrel) and experimental groups were set up with 10 ICR mice (male, weighed about 25 g) in each group. Animals in each group were administered the corresponding drug solution by oral gavage (i.g.) at 0.1 ml/10 g body weight, and the blank control group was given distilled water, once daily for 4 days. On the 4th day, 1 h after the administration of the drug, the animals were anesthetized by intraperitoneal injection of sodium barbiturate at a dose of about 50 mg/kg, and 20 min later, the tails of the mice were cut at a distance of 3 mm from the tip of the tail, and at regular intervals, absorbent paper was used to dip the blood at the severed tails until no blood exuded, which was recorded as the bleeding time, and the results of the experiment were shown in Table 2.
Calculation equation for prolongation of bleeding time: […]

[3] = test system: mice injected with ellagic acid via the tail vein; assay: Effect on in vivo clotting time in mice (ellagic acid tail vein injection); conditions: Mus musculus, iv, 100 mg/kg i.g. for 4 days, ellagic acid i.v. 1 h after last dose, vs model group, read-out: Clotting time prolongation (%)
Experimental: The control and model groups were gavaged with distilled water, and the positive clopidogrel group, and the test substance group were gavaged orally (i.g.) with drug solution in a volume of 0.1 mL/10 g for 4 consecutive days. 1 h after the last administration, all groups were injected with 0.15 mL/10 g of 0.3% ellagic acid solution via tail vein injection except for the blank group which was injected with physiological saline: 0.1 ml/10 g. After 5 min, glass capillaries were used for blood collection through the retro-orbital venous plexus, and the appearance time of coagulation filaments was recorded by glass capillaries at 10-second intervals.
Calculation equation for prolongation of clotting time:
Prolongation of clotting time (%)=[(mean value of clotting time in blank or administered group/mean value of clotting time in model group)−1]×100%

[4] = test system: rats with myocardial ischemia-reperfusion injury; assay: Myocardial ischemia-reperfusion injury caused by coronary artery ligation in rats; type: in vivo; conditions: x ± s, n = 8
Experimental: Experimental Methods: A model of myocardial ischemia/reperfusion (MI/R) injury caused by coronary artery ligation was established in rats, and animals were grouped into high-dose (20 mg/kg), medium-dose (10 mg/kg), low-dose (5 mg/kg) of the test drug, clopidogrel (7.5 mg/kg), sham, and model groups. Equal volume of 0.5% CMC-Na was administered at 0.5 ml/100 g body weight in both sham and model groups. The drug was administered by gavage (i.g.) once a day for 5 consecutive days. Modeling was performed 30 min after the last administration, and after modeling, 8 successfully modeled rats were selected from each group for subsequent experiments. The sham group was placed a wire under the left anterior descending branch of the coronary artery according to the model preparation method without ligation, and the other groups were modeled according to the model preparation method. The effects of the test drugs on the cardiac infarction rate and the biochemical indexes of creatine kinase (CK), lactate dehydrogenase (LDH), malondialdehyde (MDA), and superoxide dismutase (SOD) in plasma were detected, and TTC staining of the heart was performed to detect the effects of the test drugs on the area of myocardial infarction in MI/R rats.

[5] = test system: acute inflammatory response caused by ellagic acid (serum cytokines); assay: Antibody microarray detection of serum factors in ellagic acid model mice; type: in vivo, ICR mice; design: TNFa / IL-6 / IL-1b / IL-5 / IL-13 / IL-1α / IL-1β / IL-2 / IL-3 / IL-4 / IFNg / CD40: unit not given here
Experimental: Experimental methods: ICR male mice, weighed about 25 g, were randomly divided into four groups: normal group, ellagic acid model group, 1-1 group, and 1-22 group, with four mice in each group. Mice in 1-1 group and 1-22 group were given 1-1, 100 mg/kg and 1-22, 100 mg/kg by gavage once a day respectively. 1 h after the third administration, except for the normal control group, the other three groups of mice were injected into the tail vein with 0.10 mL/10 g of 0.3% ellagic acid saline solution, and 1 h after injection, whole blood was collected from each animal, and centrifuged (3,000 rpm/min) for 10 min after 30 min of standing, and then centrifuged to obtain the serum. The serum from each group of animal was mixed in an EP tube, transported at −80° C., and sent for antibody microarray detection.

[6] = 100 mg/kg i.g. once daily for 4 days
[7] = Table 16, pooled serum, 100 mg/kg by gavage
[8] = Table 17, pooled serum, 100 mg/kg by gavage
[9] = Table 18, pooled serum, 100 mg/kg by gavage
[10] = Table 19, pooled serum, 100 mg/kg by gavage

Structure (SMILES)	change in vivo at 100 mg/kg [3]	Bleeding time prolongation (%) [2, 6]	further results
CCCCC1OC(=O)c2ccccc21 (centres unmarked) [Butylphthalide, butylphthalide, reference compound]	–	–	Number of survivors after 15 days animal ([1]; 60 mg/kg by gavage once a day, 15 enrolled): 7; Mortality (%) ([1]; 15-day, 60 mg/kg by gavage): 53.33%; Neurological function score on day 15 ([1]; Bederson's method, 60 mg/kg): 1.25; Weight on day 1 ([1]; mean body weight, 60 mg/kg): 281.00 g; Weight on day 5 ([1]; mean body weight, 60 mg/kg): 234.27 g; Weight on day 15 ([1]; mean body weight, 60 mg/kg): 276.75 g
COC(=O)[C@H](c1ccccc1Cl)N1CCc2sccc2C1 [Clopidogrel, clopidogrel, reference compound]	36.8%	–	Bleeding time prolongation (%) ([2]; 15 mg/kg i.g. once daily for 4 days): >579.89%; Cardiac infarction rate (%) ([4]; 7.5 mg/kg i.g. once a day for 5 days): 14.29 ± 6.82 %; Pathological Score ([4]; myocardium, 7.5 mg/kg i.g.): 1.88 ± 0.64; CK (U/mL) ([4]; plasma, 7.5 mg/kg i.g.): 0.32 ± 0.20 U/mL; LDH (U/L) ([4]; plasma, 7.5 mg/kg i.g.): 8522.72 ± 626.17 U/L; MDA ([4]; plasma, 7.5 mg/kg i.g.): 15.90 ± 1.37 nmol/mL; SOD (U/mL) ([4]; plasma, 7.5 mg/kg i.g.): 40.92 ± 1.67 U/mL
CC(C)OC(=O)CCNC(=O)CCNc1cc(=O)n(C)c(=O)n1C [Compound 1-2]	49.9%	6.50%	–
Cn1c(NCCC(=O)NCCC(=O)OC2CC3CCC2(C)C3(C)C)cc(=O)n(C)c1=O (centres unmarked) [Compound 1-4]	39.7%	16.40%	–
Cn1c(NCCC(=O)NCCC(=O)OC2CC2)cc(=O)n(C)c1=O [Compound 1-5]	41.9%	−13.60%	–
Cn1c(NCCC(=O)NCCC(=O)OC2CCCCC2)cc(=O)n(C)c1=O [Compound 1-6]	42.4%	4.80%	–
Cn1c(NCCC(=O)NCCC(=O)Oc2ccccc2)cc(=O)n(C)c1=O [Compound 1-7]	41.7%	15.10%	–
Cc1cccc(C)c1OC(=O)CCNC(=O)CCNc1cc(=O)n(C)c(=S)n1C [Compound 1-11]	39.3%	20.60%	–
CC(C)OC(=O)CCNC(=O)CCNc1cc(=O)n(C)c(=O)n1Cc1cc(F)ccc1C#N [Compound 1-13]	39.8%	15.60%	–
Cn1c(=O)cc(NCCC(=O)NCCC(=O)Oc2ccccc2)n(Cc2cc(F)ccc2C#N)c1=O [Compound 1-15]	42%	−4.70%	–
CC1CCC(C(C)C)C(OC(=O)CCNC(=O)CCNc2cc(=O)n(C)c(=O)n2Cc2cc(F)ccc2C#N)C1 (centres unmarked) [Compound 1-16]	38%	11.00%	–
CCOC(=O)CCNC(=O)CCNc1cc(=O)n(C)c(=O)n1Cc1ccccc1C#N [Compound 1-17]	44.1%	−6.20%	–
CCOC(=O)CCNC(=O)CCNc1cc(=O)n(C)c(=O)n1Cc1cc(F)ccc1C#N [Compound 1-18]	42.9%	13.30%	–
Cc1cccc(C)c1OC(=O)CCNC(=O)CCNc1cc(=O)n(C)c(=O)n1Cc1cc(F)ccc1C#N [Compound 1-19]	60.4%	−38.00%	–
CCOC(=O)CCNC(=O)[C@H](Nc1cc(=O)n(C)c(=O)n1C)C(C)CC (some centres unmarked) [Compound 1-22]	40.7%	19.83%	IL-6 [5, 7]: 10,273.27*; RANTES/ccl5 [5, 7]: 1,909.28*; TNFa [5, 7]: 290.22*; IL-1b ([5]; Table 16, pooled serum, 100 mg/kg by gavage once a day x3, 1 h after ellagic acid): 268.76*; IL-1α [5, 8]: 837.49*; IL-1β [5, 8]: 268.76*; IL-2 [5, 8]: 464.49; IL-3 [5, 8]: 872.26*; IL-4 [5, 8]: 961.11*; IL-5 [5, 8]: 227.55*; IL-6 [5, 8]: 10,273.27*; IL-13 [5, 8]: 620.73*; Eotaxin/CCL11 [5, 9]: 3,096.53*; MCP1/CCL2 [5, 9]: 2,231.63*; MIP-3a/CCL20 [5, 9]: 1,252.13*; RANTES/CCL5 [5, 9]: 1,909.28*; CD40 [5, 10]: 509.56*; IFNg [5, 10]: 218.11*; number of down-regulated differential proteins ([5]; interleukin factors (Table 17), compared with the model group): seven
CCOC(=O)CCCCCNC(=O)CCCCCNc1cc(=O)n(C)c(=O)n1C [Compound 1-23]	38.1%	−19.20%	–
Cn1c(NCCCCCC(=O)NCCCCCC(=O)O)cc(=O)n(C)c1=O [Compound 1-24]	36.7%	20.60%	–
CC(C)OC(=O)CCNC(=O)CCNc1cc(=O)n(Cc2ccccc2)c(=O)n1Cc1ccccc1 [Compound 1-26]	40.4%	−13.30%	–
CC(C)OC(=O)CCNC(=O)CCNc1cc(=O)n(C)c(=O)n1Cc1cccnc1 [Compound 1-27]	39.5%	23.50%	–
Cn1c(=O)cc(NCCC(=O)NCCC(=O)Oc2ccccc2)n(Cc2ccccc2)c1=O [Compound 1-30]	39.8%	−9.70%	–
CC1CCC(C(C)C)C(OC(=O)CCNC(=O)CCNc2cc(=O)n(C)c(=O)n2Cc2cccnc2)C1 (centres unmarked) [Compound 1-32]	48.4%	−9.00%	–
CC(C)OC(=O)CCNC(=O)CCNc1cc(=O)n(Cc2cccnc2)c(=O)n1Cc1cccnc1 [Compound 1-34]	53.5%	−2.10%	–
CCOC(=O)CCNC(=O)[C@@H](Nc1cc(=O)n(C)c(=O)n1C)C(C)CC (some centres unmarked) [Compound 1-37]	32.6%	48.80%	–
CCOC(=O)CCCCCNC(=O)CCCCCNc1cc(=O)[nH]c(=O)[nH]1 [Compound 1-38]	37.5%	28.40%	–
CCOC(=O)CCNC(=O)CCNc1cc(=O)[nH]c(=N)[nH]1 [Compound 1-39]	37.2%	16.90%	–
CCOC(=O)[C@H](NC(=O)CCNc1cc(=O)n(C)c(=O)n1C)C(C)C [Compound 1-42]	41.4%	−13.40%	–
CC(C)OC(=O)CCNC(=O)CCN(C)c1cc(=O)n(C)c(=O)n1Cc1cc(F)ccc1C#N [Compound 1-45]	43.1%	18.60%	–
CCOC(=O)CCCCNC(=O)CCCCNC(=O)CCCCNc1cc(=O)n(C)c(=O)n1C [Compound 1-48]	38.6%	26.40%	–
CCOC(=O)CCNC(=O)CCNc1cc(=O)n(C2CCCC2)c(=O)n1C1CCCC1 [Compound 1-54]	37.2%	13.00%	–
CCOC(=O)CCNC(=O)CCNc1cc(=O)n(Cc2cccnc2)c(=O)n1Cc1cccnc1 [Compound 1-55]	38.6%	−3.10%	–
